Among the data in article PMC5520944 (Cell Death & Disease, 2017) are IC50 values, retold here.

Molecules are shown by their SMILES. Where a name gives a salt, the structure may show the parent alone.

One assay deals with MEF. The assay can be described thus: cells. The arrangement: species or system L929sAhFas or MEF; protection from TNF-induced cell death, percentage PI-positive nuclei by high-content imaging. The conditions noted are these: Mus musculus, mTNF + BV6, inhibition of induced cell death. Here is the method:
(c,d) HT-29 and Jurkat FADD−/− cells were pretreated for 1 h with DMSO, Nec-1 or Sorafenib (concentrations as indicated) and stimulated for 6 h with 30 ng/ml hTNF, 1 μM BV6 and 30 μM zVAD (HT-29) or stimulated for 10 h with 100 ng/ml hTNF (Jurkat FADD−/−). (a-d) Data were normalized to DMSO-treated control cells and represent the mean value±S.E.M. of three independent experiments. Toxic concentrations were removed from the analysis. L929sAhFas and MEF cells were stained with Hoechst and PI and percentage PI-positive nuclei was determined using high-content image analysis (BD pathway Bioimager). For HT-29 and Jurkat FADD−/− cells, cell death was determined by PI staining and flow cytometry. […] Cell death in AML cells was determined by PI staining and flow cytometry. […] Smac mimetic BV6[34] instead of TAK1i was used as a sensitizer for testing of mouse embryonic fibroblasts (MEF) and human cell lines. […] Since Sorafenib is used to treat AML,[27] we also included two AML cell lines to investigate whether it alters the sensitivity of these cells to necroptotic stimuli (BV6 in the presence of zVAD-fmk).[34]

Another assay has as its system L929sAhFas. The assay can be described thus: cells. The arrangement: high-content necroptosis screen, percentage PI-positive nuclei as percent of DMSO plus stimulus control. The conditions noted are these: mTNF-induced cell death, validation screen; read-out: Validation screen IC50 (µM) (TNF). The text has this: To identify novel inhibitors or regulators of necroptosis, 500 small compounds from libraries targeting autophagy, kinases, phosphatases, proteases and redox balance were screened for their ability to block TNF-induced necroptosis in murine L929sAhFas cells. Three conditions were used to induce necroptosis in L929 cells: TNF alone, TNF+TAK1 inhibitor (TAK1i) and TNF+zVAD-fmk, a pan-caspase inhibitor. Inhibition of TAK1 or caspases sensitizes to necroptosis.[13], [32] Necroptosis, measured as the percentage of PI-positive nuclei normalized to the plate-specific DMSO control, was determined for each compound (Supplementary Figure 1A). Z’ values for the TNF- and TNF+TAK1i-induced cell death assay were 0.498 and 0.919, respectively (Supplementary Figures 2A and B), indicating good assay performance. Sorafenib was identified as an effective inhibitor of both TNF- and TNF+TAK1i-induced necroptosis (Figure 1a). […] In an independent screening with 437 FDA-approved drugs and TNF+zVAD-fmk as necroptosis trigger in L929 cells (Supplementary Figure 1B), Sorafenib was also shown to be a potent inhibitor (Figure 1b). […] After compound treatment, L929sAhFas (a) or L929 (b) cells were stimulated with mTNF (T), mTNF+Tak1i (TiT) or mTNF+zVAD (zVT) (Supplementary Figure 1A and B). (a) Cell death percentage (% PI-positive nuclei) or cell loss was calculated as percent of control (DMSO+stimulus). Green points marked by the green dotted line represent a selection of kinase inhibitors from the screening on L929sAhFas cells (Supplementary Table 1), that are only slightly protective in the TNF-stimulated condition. (b) Cell loss (luminescence-based readout for ATP) was calculated as percent of control (DMSO+stimulus). […] In stimulated conditions, % PI-positive nuclei was determined as % of DMSO control. Data represent mean values±S.E.M. of two independent experiments. Cells were stained with Hoechst and PI and percentage PI-positive nuclei was determined using high-content image analysis (BD pathway Bioimager). (d) L929sAhFas cells were treated with Sorafenib (concentration as indicated) for 24 h. Then, stimulus was removed, 50 cells/condition seeded and colonies counted with crystal violet staining after 10 days incubation. Quantification was performed using ImageJ. n=2, a representative experiment is shown Legends supplementary figures Supplementary Figure S1. Schemes of workflow screening assays in L929 cell lines. (A) Scheme of the workflow of a high-content screening assay on L929sAhFas cells using mTNF (T) and mTNF+Tak1i ((5Z)-7-Oxozeaenol) (TiT) to induce necroptotic cell death. Nec-1 and zVAD-fmk were used as protective and sensitizing benchmarks, respectively, on all plates. (B) Scheme of the workflow of a CellTiter-Glo luminescent cell viability screening assay on L929 cells using mTNF+zVAD (zVT) to induce necroptotic cell death. Supplementary Figure S2. Z’ calculation for cell death screening assays in L929 cells. (A) Z’ calculation for cell death screening assay (Fig. 1A) in mTNF-stimulated L929sAhFas cells. (B) Z’ calculation for cell death screening assay (Fig. 1A) in L929sAhFas cells stimulated with mTNF + Taki.

By IC50 is commonly meant the point on the concentration scale where inhibition reaches its midpoint. With `CNC(=O)c1cc(Oc2ccc(NC(=O)Nc3ccc(Cl)c(C(F)(F)F)c3)cc2)ccn1` [Sorafenib tosylate], the figures for the IC50 in the assay on MEF and in the assay with L929sAhFas were 2200 ± 470 nM and 3.25 µM, respectively.
